These are literature values, as cited in US20250064831A1 (Acerus Biopharma Inc., priority 2012, published 2025).

Structures are written as SMILES.

For data set [1] the following is noted: polyethylene glycol (200 mg/ml), high variations.
For data set [2] the following is noted: progesterone/cyclodextrin powder mixtures, nasal.
The conditions of data set [3]: in vivo.

As for `CC(=O)[C@H]1CC[C@H]2[C@@H]3CCC4=CC(=O)CC[C@]4(C)[C@H]3CC[C@]12C` [progesterone], in data set [1], the “duration of serum level” value is listed as “at least 8 hours”. In addition, the serum level decrease in data set [2] is reported as not above 20 min.
For the molecule `CN(C)CC(=O)O[C@H]1CC[C@H]2[C@@H]3CCC4=CC(=O)CC[C@]4(C)[C@H]3CC[C@]12C` [testosterone 17β-N,N-dimethylglycinate], the elimination half-lives entry in data set [3] was “about 55 min”.
